# Data from patent US20220204539A1, “CD73 INHIBITORS” (BioArdis LLC, priority 2019, published 2022).
# Target: T1, Recombinant Human 5′-Nucleotidase (CD73) (Homo sapiens, UniProt P21589)
# T1 construct: CHO derived CD73 (Trp27-Lys547), with a C-terminal 6-His tag; 6-His (C); purchased R&D 5795-EN; host or cells: CHO
# T1 sequence (P21589 27-547): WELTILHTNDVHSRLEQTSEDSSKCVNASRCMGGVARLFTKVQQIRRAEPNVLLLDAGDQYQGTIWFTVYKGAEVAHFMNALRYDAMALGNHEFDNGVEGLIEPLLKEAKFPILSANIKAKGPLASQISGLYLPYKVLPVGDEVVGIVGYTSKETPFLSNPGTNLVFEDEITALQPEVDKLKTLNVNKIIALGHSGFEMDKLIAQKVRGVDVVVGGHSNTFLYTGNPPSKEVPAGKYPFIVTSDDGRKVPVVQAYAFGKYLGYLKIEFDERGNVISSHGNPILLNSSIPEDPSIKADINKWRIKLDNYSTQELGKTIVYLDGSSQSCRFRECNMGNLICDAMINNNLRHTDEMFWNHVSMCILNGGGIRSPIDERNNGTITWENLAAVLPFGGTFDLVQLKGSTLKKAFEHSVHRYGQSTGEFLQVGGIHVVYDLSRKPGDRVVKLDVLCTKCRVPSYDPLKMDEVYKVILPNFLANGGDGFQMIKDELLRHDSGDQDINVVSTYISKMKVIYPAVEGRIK
# Assay: CD73 Enzyme Assay
# Assay type: biochemical
# Settings: not given
# Source text: Soluble recombinant CD73 catalyzes the conversion of adenosine monophosphate (AMP) to adenosine and inorganic phosphate. The phosphate detection reagent, PiColorLock™ (Innova Bioscience, Cat #303-0125) is based on the change in absorbance of the dye malachite green in the presence of inorganic phosphate (Pi) and this property can be exploited to measure any enzyme that generates Pi. Recombinant Human 5′-Nucleotidase (CD73) (R&D #5795-EN, CHO derived CD73 (Trp27-Lys547), with a C-terminal 6-His tag) was used in the enzymatic assay. This assay was run in a 384-well plate format (Corning® NBS™ 384 well plates, Cat #3640). The basic assay procedure involves two steps: 1) Enzyme reaction: The CD73 enzyme (R&D #5795-EN) is incubated in the presence or absence of compounds. AMP (sigma, cat #01930) is added to start the […] reaction. 2) Detection step: Gold mix is added to the assay system, then stabilizers are added. After incubation the absorbance of the solution is read at OD 635 nm. The recorded OD signal is proportional to the enzyme activity.
# Briefly, 25 μl human CD73 (0.5 nM final concentration) in the enzymatic buffer solutions (20 mM Tris, 25 mM NaCl, 1 mM MgCl2, pH 7.5, 0.005% Tween-20) were mixed with various concentrations of the test compound (dissolved in 100% DMSO). These solutions were incubated for 15 min at 25° C., and subsequently 25 μl AMP (30 μM final concentration) was added to start the reaction. The final reaction mixture of enzyme-substrate-compound was incubated for 20 min at 37° C. Meanwhile ‘Gold mix’ was prepared shortly before use by adding 1/100 vol. of accelerator to the PiColorLock™ Gold reagent. 12 μL/well of the ‘Gold mix’ was added to assay plate containing 50 μL enzyme reaction buffer and incubated at 25° C. for 5 min. 5 μL/well stabilizer was added to the assay plate and incubated at 25° C. for 30 min. The absorbance of the well solutions was measured at 635 nm on a Spark 10M instrument (TECAN).
# The percent (%) inhibition at each concentration of a compound was calculated relative to the OD value in the Max and Min control wells contained within each assay plate. The Max control wells contained enzyme and substrate as 0% inhibition, and the M control wells only contained substrate without enzyme as 100% inhibition. The concentrations and percent inhibition values for a test compound are plotted and the concentration of the compound required to achieve 50% inhibition (IC50) was determined with a four-parameter logistic dose response equation.
row,SMILES,IC50 [nM]
1,"COP(=O)(CP(=O)(O)O)OC[C@H]1O[C@@H](c2cnc3c(NC4CCCC4)nc(Cl)nn23)[C@H](O)[C@@H]1O (stereo partly drawn) [Compound 71, (((((2R,3S,4R,1S)-5-(2-chloro-4-(cyclopentylamino)imidazo[2,1-f][1,2,4]triazin-7-yl)-3,4-dihydroxytetrahydrofuran-2-yl)methoxy)(methoxy)phosphoryl)methy)phosphonic Acid]",10 to 99

# Same assay, conditions: human CD73 0.5 nM, AMP 30 μM, PiColorLock phosphate detection; read-out: Potency (IC50, CD73 enzyme assay)
row,IC50 [nM],SMILES
1,< 10,"O=P(O)(O)CP(=O)(O)OC[C@H]1O[C@@H](c2cnc3c(NC4CCCC4)ncnn23)[C@H](O)[C@@H]1O [Compound 1, (((((2R,3S,4R,5S)-5-(4-(cyclopentylamino)imidazo[2,1-f][1,2,4]triazin-7-yl)-3,4-dihydroxytetrahydrofuran-2-yl)methoxyxhydroxy)phosphoryl)methyl)phosphonic acid]"
2,10 to 99,"O=P(O)(O)CP(=O)(O)OC[C@H]1O[C@@H](c2cnc3c(NCc4ccccc4)ncnn23)[C@H](O)[C@@H]1O [Compound 2, (((((2R,3S,4R,1S)-5-(4-(benzylamino)imidazo[2,1-f][1,2,4]triazin-7-yl)-3,4-dihydroxytetrahydrofuran-2-yl)methoxy)(hydroxy)phosphoryl)methyl)phosphonic Acid]"
3,100 to 999,"CC(C)OC(=O)OCOP(=O)(CP(=O)(O)OC[C@H]1O[C@@H](c2cnc3c(NC4CCCC4)nc(Cl)nn23)[C@H](O)[C@@H]1O)OCOC(=O)OC(C)C [Compound 70, (((((((2R,3S,4R,5S)-5-(2-chloro-4-(cyclopentylamino)imidazo[2,1-f][1,2,4]triazin-7-yl)-3,4-dihydroxytetrahydrofuran-2-yl)methoxy)(hydroxy)phosphoryl)methyl)phosphoryl)bis(oxy)) bis(methylene) diisopropyl bis(carbonate)]"
4,< 10,"O=P(O)(O)CP(=O)(O)OC[C@H]1O[C@@H](c2cnc3c(NCC4CCC(O)CC4)nc(Cl)nn23)[C@H](O)[C@@H]1O (stereo partly drawn) [Compound 77, (((((2R,3S,4R,1S)-5-(2-chloro-4-(((4-hydroxycyclohexyl)methyl)amino)imidazo[2,1-f][1,2,4]triazin-7-yl)-3,4-dihydroxytetrahydrofuran-2-yl)methoxy)(hydroxy)phosphoryl)methyl)phosphonic Acid]"
5,< 10,"O=P(O)(O)CP(=O)(O)OC[C@H]1O[C@@H](c2cnc3c(NCC4CCCC(O)C4)nc(Cl)nn23)[C@H](O)[C@@H]1O (stereo partly drawn) [Compound 78, (((((2R,3S,4R,5S)-5-(2-chloro-4-(((3-hydroxycyclohexyl)methyl)amino)imidazo[2,1-f][1,2,4]triazin-7-yl)-3,4-dihydroxytetrahydrofuran-2-yl)methoxy)(hydroxy)phosphoryl)methyl) phosphonic acid]"
6,< 10,"O=P(O)(O)CP(=O)(O)OC[C@H]1O[C@@H](c2cnc3c(N[C@H]4CC[C@H](N5CCCCC5)C4)nc(Cl)nn23)[C@H](O)[C@@H]1O [Compound 79, (((((2R,3S,4R,1S)-5-(2-chloro-4-(((1S,3S)-3-(piperidin-1-yl)cyclopentyl)amino)imidazo[2,1-f][1,2,4]triazin-7-yl)-3,4-dihydroxytetrahydrofuran-2-yl)methoxy)(hydroxy)phosphoryl)methyl)phosphonic Acid]"
7,10 to 99,"C=Cc1nc(NC2CCCC2)c2ncc([C@@H]3O[C@H](COP(=O)(O)CP(=O)(O)O)[C@@H](O)[C@H]3O)n2n1 [Compound 80, (((((2R,3S,4R,1S)-5-(4-(cyclopentylamino)-2-vinylimidazo[2,1-f][1,2,4]triazin-7-yl)-3,4-dihydroxytetrahydrofuran-2-yl)methoxy)(hydroxy)phosphoryl)methyl)phosphonic Acid]"
8,10 to 99,"O=P(O)(O)CP(=O)(O)OC[C@H]1O[C@@H](c2coc3c(NCc4ccccc4)ncnc23)[C@H](O)[C@@H]1O [Compound 81, (((((2R,3S,4R,5R)-5-(4-(benzylamino)furo[3,2-d]pyrimidin-7-yl)-3,4-dihydroxytetrahydrofuran-2-yl)methoxyxhydroxy)phosphoryl)methyl)phosphonic acid]"

row,SMILES,IC50 [nM]
1,"COP(=O)(CP(=O)(OC)OC[C@H]1O[C@@H](c2cnc3c(N4CC5CCCC5C4)nc(Cl)nn23)[C@@H](F)[C@@H]1O)OC (stereo partly drawn) [Compound 76, ((2R,3R,4S,5S)-5-(2-chloro-4-(hexahydrocyclopenta[c]pyrrol-2(1H)-yl)imidazo[2,1-f][1,2,4]triazin-7-yl)-4-fluoro-3-hydroxytetrahydrofuran-2-yl)methyl methyl ((dimethoxyphosphoryl)methyl)phosphonate]",> 1000

# Target: T2, Cell surface CD73 of U87 MG human glioblastoma cells (Homo sapiens, UniProt P21589)
# T2 construct: Cell surface CD73 catalyzes the conversion of adenosine monophosphate (AMP) to adenosine and inorganic phosphate; endogenous in cells; host or cells: U87 MG human glioblastoma cells
# T2 sequence (P21589 27-549): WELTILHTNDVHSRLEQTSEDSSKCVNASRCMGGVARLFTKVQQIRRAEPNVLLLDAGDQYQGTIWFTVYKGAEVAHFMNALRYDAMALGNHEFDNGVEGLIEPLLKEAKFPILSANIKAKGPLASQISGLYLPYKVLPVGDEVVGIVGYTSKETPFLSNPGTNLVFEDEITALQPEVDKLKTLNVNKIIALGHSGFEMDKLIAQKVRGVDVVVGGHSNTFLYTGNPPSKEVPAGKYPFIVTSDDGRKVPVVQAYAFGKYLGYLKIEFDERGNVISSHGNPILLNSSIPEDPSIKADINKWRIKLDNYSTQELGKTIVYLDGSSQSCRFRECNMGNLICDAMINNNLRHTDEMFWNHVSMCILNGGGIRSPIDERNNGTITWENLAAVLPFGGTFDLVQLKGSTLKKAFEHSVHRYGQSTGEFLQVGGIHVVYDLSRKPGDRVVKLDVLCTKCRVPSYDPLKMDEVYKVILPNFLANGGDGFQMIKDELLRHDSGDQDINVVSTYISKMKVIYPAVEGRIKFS
# Assay: CD73 Cellular Assay
# Assay type: cell-based
# Settings: 5000 cells per well, 30 μM AMP substrate, read-out: Potency (IC50, CD73 cellular assay)
# Experimental: Cell surface CD73 catalyzes the conversion of adenosine monophosphate (AMP) to adenosine and inorganic phosphate. U87 MG human glioblastoma cells express high level of CD73. Cells are treated with compounds in a 96-well assay plate and supernatants are collected into a 384-well detection plate. The concentration of inorganic phosphate (Pi) in the supernatants is determined using the phosphate detection reagent, PiColorLock™ (Innova Bioscience, Cat #303-0125) following the manufacturer's instructions.
# Briefly, on the day of the assay, U87 MG cells were harvested and resuspended in assay buffer which consisted of 20 mM HEPES, pH=7.4, 137 mM NaCl, 5.4 mM KCl, 1.3 mM CaCl2, 4.2 mM NaHCO3 and 0.1% glucose. To test the effect of compounds on cellular CD73 enzymatic activity, 500 nL/well of compounds dissolved in DMSO were added to a 96-well TC-treated microplate (Corning #3599). Next, 80 μL/well of U87 MG cells in assay buffer were added to assay plate. After 30 minutes of incubation in an atmosphere of 5% CO2 at 37° C., 20 μL/well of 150 μM AMP (Adenosine 5′-monophosphate monohydrate, Sigma, Cat #01930) in assay buffer was added to assay plate. Final assay conditions consisted of 5000 cells per well in 0.5% DMSO and 30 μM AMP substrate. After 50 minutes of incubation in an atmosphere of 5% CO2 at 37° C., 50 μL/well of supernatant was transferred to the 384-well detection plate (Corning® NBS™ 384 well plates, Cat #3640). Meanwhile “Gold mix” was prepared shortly before use by adding 1/100 volume of accelerator to the PiColorLock™ Gold reagent. 12 μL/well of the “Gold mix” was added to detection plate containing 50 μL/well of supernatant and incubated at 25° C. for 5 minutes. 5 μL/well stabilizer was added to the detection plate and incubated at 25° C. for 30 minutes. The absorbance at 635 nm was measured on a Spark 10M instrument (TECAN). The percent (%) inhibition at each concentration of a compound was calculated relative to the OD value in the Max and Min control wells contained within each assay plate. The Max control wells contained cells and substrate as 0% inhibition, and the Min control wells only contained cells as 100% inhibition. The concentrations and percent inhibition values for a test compound are plotted and the concentration of a the compound required to achieve 50% inhibition (IC50) was determined with a four-parameter logistic dose response equation.
row,IC50 [nM],SMILES
1,< 1,"O=P(O)(O)CP(=O)(O)OC[C@H]1O[C@@H](c2cnc3c(NC4CCCC4)ncnn23)[C@H](O)[C@@H]1O [Compound 1, (((((2R,3S,4R,5S)-5-(4-(cyclopentylamino)imidazo[2,1-f][1,2,4]triazin-7-yl)-3,4-dihydroxytetrahydrofuran-2-yl)methoxyxhydroxy)phosphoryl)methyl)phosphonic acid]"
2,1 to 9.9,"O=P(O)(O)CP(=O)(O)OC[C@H]1O[C@@H](c2cnc3c(NCc4ccccc4)ncnn23)[C@H](O)[C@@H]1O [Compound 2, (((((2R,3S,4R,1S)-5-(4-(benzylamino)imidazo[2,1-f][1,2,4]triazin-7-yl)-3,4-dihydroxytetrahydrofuran-2-yl)methoxy)(hydroxy)phosphoryl)methyl)phosphonic Acid]"
